These results are taken from article PMC8942544, “Design and synthesis of benzodiazepines as brain penetrating PARP-1 inhibitors” (Journal of Enzyme Inhibition and Medicinal Chemistry, 2022).

Broadly, the inhibition is the share of the control response that was lost under treatment. A higher inhibition goes with a strong effect.

T1 sequence (P09874 whole entry): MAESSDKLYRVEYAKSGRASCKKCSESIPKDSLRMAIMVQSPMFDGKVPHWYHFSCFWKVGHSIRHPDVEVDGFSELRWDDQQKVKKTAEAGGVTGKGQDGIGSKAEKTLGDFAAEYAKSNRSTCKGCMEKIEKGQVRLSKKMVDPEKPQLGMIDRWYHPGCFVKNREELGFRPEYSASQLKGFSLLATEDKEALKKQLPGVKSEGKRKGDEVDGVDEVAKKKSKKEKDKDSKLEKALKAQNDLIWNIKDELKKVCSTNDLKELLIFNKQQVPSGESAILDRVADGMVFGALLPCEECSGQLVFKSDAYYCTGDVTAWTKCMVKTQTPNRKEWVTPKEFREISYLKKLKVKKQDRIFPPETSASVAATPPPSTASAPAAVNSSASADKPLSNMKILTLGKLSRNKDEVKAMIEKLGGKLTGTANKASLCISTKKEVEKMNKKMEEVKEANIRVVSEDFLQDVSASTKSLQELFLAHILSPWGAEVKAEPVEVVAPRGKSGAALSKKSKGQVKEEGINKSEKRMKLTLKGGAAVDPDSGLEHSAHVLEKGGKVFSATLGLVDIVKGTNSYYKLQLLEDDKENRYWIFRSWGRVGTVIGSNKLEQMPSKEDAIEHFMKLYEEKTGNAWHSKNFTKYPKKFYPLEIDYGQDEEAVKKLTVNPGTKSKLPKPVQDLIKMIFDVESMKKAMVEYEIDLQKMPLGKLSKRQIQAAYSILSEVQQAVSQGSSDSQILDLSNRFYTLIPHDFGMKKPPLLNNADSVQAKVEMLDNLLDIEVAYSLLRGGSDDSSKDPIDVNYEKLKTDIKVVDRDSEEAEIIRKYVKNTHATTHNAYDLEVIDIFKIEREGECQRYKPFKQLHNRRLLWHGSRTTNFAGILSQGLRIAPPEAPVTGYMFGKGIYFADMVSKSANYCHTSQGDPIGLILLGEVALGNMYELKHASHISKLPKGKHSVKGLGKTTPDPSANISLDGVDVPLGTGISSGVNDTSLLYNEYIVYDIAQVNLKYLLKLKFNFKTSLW

The assay has as its target T1, PARP-1 (Homo sapiens, UniProt P09874).
T1 construct: purchased BPS Bioscience 80580
Kind of assay: PARP-1 enzyme inhibition assay (BPS Bioscience PARP Colorimetric Assay Kit). Format: biochemical. Particulars: compound concentration 50 nM; three independent tests. On the procedure: All target compounds were evaluated for PARP-1 enzyme inhibition activity at the concentration of 50 nM determined by previous pre-experiments.
The ability of the compounds to inhibit PARP-1 enzyme activity was assessed using BPS Bioscience's PARP Colorimetric Assay Kit (BPS Bioscience, Catalog # 80580). PARP-1 is known to catalyse the NAD-dependent addition of poly(ADP-ribose) to histones. The PARP-1 assay kit comes in a convenient 96-well format, with purified PARP-1 enzyme, histone mixture, activated DNA, and PARP-1 assay buffer. The key to the PARP-1 Colorimetric Activity Assay is the biotinylated substrate. With this kit, only three simple steps are required for PARP-1 reactions. First, histone proteins are coated on a 96-well plate. Next, the PARP-1 biotinylated substrate is incubated with an assay buffer that contains the PARP-1 enzyme. Finally, the plate is treated with streptavidin-HRP followed by the addition of the colorimetric HRP substrate to produce colour that can then be measured using a UV/Vis spectrophotometer microplate reader. IC50 values were calculated using GraphPad Prism5 software.
In the case of `O=C1NCC(c2cc(F)cc(F)c2)Nc2ccccc21` (stereo not drawn) [Compound H25, 2-(3,5-Difluorophenyl)-1,2,3,4-tetrahydro-5H-benzo[e][1,4]diazepin-5-one], at 0.05 µM the inhibition was 39.2 ± 4.5%. `Nc1ccc(-c2ccc(C3=Nc4ccccc4C(=O)NC3)cc2)cc1` [Compound H37, 2-(4′-Amino-[1,1′-biphenyl]-4-yl)-3,4-dihydro-5H-benzo[e][1,4]diazepin-5-one] displayed an inhibition at 0.05 µM of 46.1 ± 3.9%.

For `COc1cccc(-c2ccc(C3=Nc4ccccc4C(=O)NC3)cc2)c1` [Compound H41, 2-(3′-Methoxy-[1,1′-biphenyl]-4-yl)-3,4-dihydro-5H-benzo[e][1,4]diazepin-5-one], the inhibition at 0.05 µM amounted to 28.3 ± 8.8%. Under `O=C1NCC(c2ccc(-c3ccc4[nH]c5ccccc5c4c3)cc2)=Nc2ccccc21` [Compound H46, 2-(4-(9H-carbazol-3-yl)phenyl)-3,4-dihydro-5H-benzo[e][1,4]diazepin-5-one] stands 14.9 ± 8.2%; under `CN1CC=C(c2ccc(C3=Nc4ccccc4C(=O)NC3)cc2)CC1` [Compound H45, 2-(4-(1-Methyl-1,2,3,6-tetrahydropyridin-4-yl)phenyl)-3,4-dihydro-5H-benzo[e][1,4]diazepin-5-one], 42.5 ± 6%. In turn, `O=C1NCC(c2ccc(O)cc2)=Nc2ccccc21` [Compound H13, 2-(4-Hydroxyphenyl)-3,4-dihydro-5H-benzo[e][1,4]diazepin-5-one] yielded an inhibition at 0.05 µM of 37.9 ± 2.3%.

Take `Cn1cc(-c2ccc(C3=Nc4ccccc4C(=O)NC3)cc2)cn1` [Compound H33, 2-(4-(1-Methyl-1H-pyrazol-4-yl)phenyl)-3,4-dihydro-5H-benzo[e][1,4]diazepin-5-one]: the inhibition at 0.05 µM is 46.5 ± 3.2%. `O=C1NCC(c2cc(F)cc(F)c2)=Nc2ccccc21` [Compound H15, 2-(3,5-Difluorophenyl)-3,4-dihydro-5H-benzo[e][1,4]diazepin-5-one] had an inhibition at 0.05 µM of 36.9 ± 1.4%. Molecule `Nc1ccc(-c2ccc(C3=Nc4ccccc4C(=O)NC3)cc2)cn1` [Compound H38, 2-(4-(6-Aminopyridin-3-yl)phenyl)-3,4-dihydro-5H-benzo[e][1,4]diazepin-5-one] showed an inhibition at 0.05 µM of 34.7 ± 4.2%. `Nc1ncc(-c2ccc(C3=Nc4ccccc4C(=O)NC3)cc2)cn1` [Compound H39, 2-(4-(2-Aminopyrimidin-5-yl)phenyl)-3,4-dihydro-5H-benzo[e][1,4]diazepin-5-one] returned an inhibition at 0.05 µM of 33.9 ± 5.3%. Under `CN1CC(c2ccc(Br)cc2)Nc2ccccc2C1=O` (stereo not drawn) [Compound H28, 2-(4-Bromophenyl)-4-methyl-1,2,3,4-tetrahydro-5H-benzo[e][1,4]diazepin-5-one] stands 24 ± 5.7%; under `O=C1NCCNc2ccccc21` [Compound H1], 6.2 ± 5.2%; under `COc1ccc(C2CNC(=O)c3ccccc3N2)cc1` (stereo not drawn) [Compound H20, 2-(4-Methoxyphenyl)-1,2,3,4-tetrahydro-5H-benzo[e][1,4]diazepin-5-one], 27.9 ± 1.8%. Then `COc1ccc(C2=Nc3ccccc3C(=O)NC2)cc1` [Compound H6, 2-(4-Methoxyphenyl)-3,4-dihydro-5H-benzo[e][1,4]diazepin-5-one], with 31.9 ± 1.2%; and `O=C1NCCCc2ccccc21` [Compound H2], with 5.2 ± 3.1%.

Consider `O=C1NCC(c2ccccc2)=Nc2ccccc21` [Compound H4, 2-Phenyl-3,4-dihydro-5H-benzo[e][1,4]diazepin-5-one], for which testing at 0.05 µM gave an inhibition of 28.8 ± 3.4%. `CN1CC(c2ccc(Br)cc2)N(C)c2ccccc2C1=O` (stereo not drawn) [Compound H29, 2-(4-Bromophenyl)-1,4-dimethyl-1,2,3,4-tetrahydro-5H-benzo[e][1,4]diazepin-5-one] had an inhibition at 0.05 µM of 22.1 ± 3.2%. Then `O=C1NCC(c2cccc(F)c2)Nc2ccccc21` (stereo not drawn) [Compound H23, 2-(3-Fluorophenyl)-1,2,3,4-tetrahydro-5H-benzo[e][1,4]diazepin-5-one], with 32.1 ± 1.6%; and `N#Cc1ccc(C2=Nc3ccccc3C(=O)NC2)cc1` [Compound H12, 4-(5-Oxo-4,5-dihydro-3H-benzo[e][1,4]diazepin-2-yl)benzonitrile], with 15.7 ± 4.1%. Molecule `COc1ccc(C2=Nc3ccccc3C(=O)NC2)cc1OC` [Compound H16, 2-(3,4-Dimethoxyphenyl)-3,4-dihydro-5H-benzo[e][1,4]diazepin-5-one] displayed an inhibition at 0.05 µM of 24.4 ± 3.2%. Then `O=C1NCC(c2ccc(-c3cn[nH]c3)cc2)=Nc2ccccc21` [Compound H32, 2-(4-(1H-pyrazol-4-yl)phenyl)-3,4-dihydro-5H-benzo[e][1,4]diazepin-5-one], with 48.6 ± 1.2%; and `CC1NC(=O)c2ccccc2NC1c1ccc(Br)cc1` (stereo not drawn) [Compound H31, 2-(4-Bromophenyl)-3-methyl-1,2,3,4-tetrahydro-5H-benzo[e][1,4]diazepin-5-one], with 28.5 ± 3.4%. Then `O=C1NCC(c2ccc(Cl)c(Cl)c2)=Nc2ccccc21` [Compound H17, 2-(3,4-Dichlorophenyl)-3,4-dihydro-5H-benzo[e][1,4]diazepin-5-one], with 34.4 ± 3.6%; and `O=C1NCC(c2ccc(-c3cccc(C(F)(F)F)c3)cc2)=Nc2ccccc21` [Compound H43, 2-(3′-(Trifluoromethyl)-[1,1′-biphenyl]-4-yl)-3,4-dihydro-5H-benzo[e][1,4]diazepin-5-one], with 41.4 ± 3.5%. Under `CC(C)N1CCN(c2ccc(C3CNC(=O)c4ccccc4N3)cc2)CC1` (stereo not drawn) [Compound H53, 2-(4-(4-Isopropylpiperazin-1-yl)phenyl)-1,2,3,4-tetrahydro-5H-benzo[e][1,4]diazepin-5-one] stands 29.9 ± 3.4%; under `O=C1NCC(c2ccc(Br)cc2)=Nc2ccccc21` [Compound H19, 2-(4-Bromophenyl)-3,4-dihydro-5H-benzo[e][1,4]diazepin-5-one], 38.4 ± 1.9%. On to `O=C1NCC(c2ccc(F)cc2)=Nc2ccccc21` [Compound H8, 2-(4-Fluorophenyl)-3,4-dihydro-5H-benzo[e][1,4]diazepin-5-one], for which the inhibition at 0.05 µM came out at 32.1 ± 3.6%.

As for `Cc1ccc(C2=Nc3ccccc3C(=O)NC2)cc1` [Compound H5, 2-(p-Tolyl)-3,4-dihydro-5H-benzo[e][1,4]diazepin-5-one], the inhibition at 0.05 µM is 37.1 ± 2.7%. As to `O=C1NCC(c2ccc(F)cc2)Nc2ccccc21` (stereo not drawn) [Compound H22, 2-(4-Fluorophenyl)-1,2,3,4-tetrahydro-5H-benzo[e][1,4]diazepin-5-one], 0.05 µM produced 33 ± 3% inhibition.

Turning to `CC1NC(=O)c2ccccc2N=C1c1ccc(Br)cc1` (stereo not drawn) [Compound H30, 2-(4-Bromophenyl)-3-methyl-3,4-dihydro-5H-benzo[e][1,4]diazepin-5-one], the inhibition at 0.05 µM turned out to be 39.8 ± 4.2%.

For the molecule `Cn1nccc1-c1ccc(C2=Nc3ccccc3C(=O)NC2)cc1` [Compound H35, 2-(4-(1-Methyl-1H-pyrazol-5-yl)phenyl)-3,4-dihydro-5H-benzo[e][1,4]diazepin-5-one], at 0.05 µM the inhibition was 44.3 ± 6.2%. On to `Nc1cccc(-c2ccc(C3=Nc4ccccc4C(=O)NC3)cc2)c1` [Compound H36, 2-(3'-Amino-[1,1'-biphenyl]-4-yl)-3,4-dihydro-5H-benzo[e][1,4]diazepin-5-one], for which testing at 0.05 µM gave an inhibition of 40.8 ± 4.7%. Molecule `COc1ccc(C2CNC(=O)c3ccccc3N2)cc1OC` (stereo not drawn) [Compound H26, 2-(3,4-Dimethoxyphenyl)-1,2,3,4-tetrahydro-5H-benzo[e][1,4]diazepin-5-one] had an inhibition at 0.05 µM of 37.4 ± 3.9%. For `COc1cccc(-c2ccc(C3CNC(=O)c4ccccc4N3)cc2)c1` (stereo not drawn) [Compound H49, 2-(3′-Methoxy-[1,1′-biphenyl]-4-yl)-1,2,3,4-tetrahydro-5H-benzo[e][1,4]diazepin-5-one], the inhibition at 0.05 µM came out at 38.5 ± 4.5%. Then `O=C1CCNc2ccccc2N1` [Compound H3], with 3.6 ± 2.5%; and `O=C1NCC(c2ccc(F)cc2F)=Nc2ccccc21` [Compound H14, 2-(2,4-Difluorophenyl)-3,4-dihydro-5H-benzo[e][1,4]diazepin-5-one], with 36.1 ± 3.6%; and `COc1ncc(-c2ccc(C3=Nc4ccccc4C(=O)NC3)cc2)cc1N` [Compound H40, 2-(4-(5-Amino-6-methoxypyridin-3-yl)phenyl)-3,4-dihydro-5H-benzo[e][1,4]diazepin-5-one], with 35.4 ± 2.4%.

`O=C1NCC(c2ccc(Cl)cc2)=Nc2ccccc21` [Compound H10, 2-(4-Chlorophenyl)-3,4-dihydro-5H-benzo[e][1,4]diazepin-5-one] showed an inhibition at 0.05 µM of 33 ± 2.4%. Then `C[C@@H]1CN(c2ccc(C3CNC(=O)c4ccccc4N3)cc2)C[C@H](C)O1` (stereo partly drawn) [Compound H55, 2-(4-((2S,6R)-2,6-dimethylmorpholino)phenyl)-1,2,3,4-tetrahydro-5H-benzo[e][1,4]diazepin-5-one], with 39.3 ± 5.2%. Under `Nc1cccc(-c2ccc(C3CNC(=O)c4ccccc4N3)cc2)c1` (stereo not drawn) [Compound H47, 2-(3′-Amino-[1,1′-biphenyl]-4-yl)-1,2,3,4-tetrahydro-5H-benzo[e][1,4]diazepin-5-one] stands 48.7 ± 5.7%.

Molecule `CC(=O)N1CCN(c2ccc(C3CNC(=O)c4ccccc4N3)cc2)CC1` (stereo not drawn) [Compound H54, 2-(4-(4-Acetylpiperazin-1-yl)phenyl)-1,2,3,4-tetrahydro-5H-benzo[e][1,4]diazepin-5-one] returned an inhibition at 0.05 µM of 34.6 ± 6.8%. Under `O=C1NCC(c2ccc(F)cc2F)Nc2ccccc21` (stereo not drawn) [Compound H24, 2-(2,4-Difluorophenyl)-1,2,3,4-tetrahydro-5H-benzo[e][1,4]diazepin-5-one] stands 34.8 ± 2.1%.
